Test systems include OVCAR-8 ovarian; SNB-19 CNS; MCF7 breast; UO-31 renal; MDA-N; HOP-92 NSCLC; NCI/ADR-RES ovarian; SK-MEL-28 melanoma; PC-3 prostate; 786-0 renal; EKVX NSCLC.
Holding throughout (assay): NCI-60 cell line screen, 48 h

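Compound exposure: 48 hours, 5 concentrations, 96-well plates. TGI is the concentration that stops growth completely.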

For `COC(NC(=O)Nc1ccccc1C)(C(F)(F)F)C(F)(F)F`, the TGI in the test with OVCAR-8 ovarian, with SNB-19 CNS, with MCF7 breast, in the test on UO-31 renal, with MDA-N and with HOP-92 NSCLC was above 100 µM throughout. For the same compound, the TGI in the test with NCI/ADR-RES ovarian, with SK-MEL-28 melanoma, in the test on PC-3 prostate and in the test with 786-0 renal was above 100 µM throughout.

`COc1ccccc1NC(=O)CC(=O)NN`: the TGI in the test on OVCAR-8 ovarian, in the test with SNB-19 CNS, in the test with MCF7 breast, in the test with EKVX NSCLC, in the test on UO-31 renal and with MDA-N was above 100 µM each time. Further, the TGI in the test with HOP-92 NSCLC, in the test on NCI/ADR-RES ovarian, in the test with SK-MEL-28 melanoma, in the test with PC-3 prostate and with 786-0 renal was above 100 µM throughout.

On to `O=C(OCc1ccccc1)N1CCNCCNCCN(C(=O)OCc2ccccc2)CCNCC1`, for which the TGI is 32.8 µM in the test on OVCAR-8 ovarian; above 100 µM in the test with SNB-19 CNS; 32 µM with MCF7 breast; 65.1 µM with EKVX NSCLC; 27.8 µM in the test on UO-31 renal; 31.3 µM in the test with MDA-N. Also, the TGI was 46.7 µM in the test on HOP-92 NSCLC; above 100 µM in the test with NCI/ADR-RES ovarian; 29.1 µM in the test with SK-MEL-28 melanoma; above 100 µM with PC-3 prostate; 28.4 µM in the test with 786-0 renal.

`CCOC(=O)CCC(C(=O)OCC)n1nnc2cc(Nc3c(C)[n+]([O-])c4cc(F)c(OCC)cc4[n+]3[O-])ccc21` (centres undefined): the TGI in the test with OVCAR-8 ovarian, in the test with SNB-19 CNS, in the test on MCF7 breast, in the test with EKVX NSCLC, in the test on UO-31 renal and with MDA-N was above 100 µM throughout. The TGI in the test on HOP-92 NSCLC was 88.8 µM; in the test with NCI/ADR-RES ovarian, above 100 µM; in the test on PC-3 prostate, above 100 µM; in the test with 786-0 renal, above 100 µM.

`O=C(c1ccc(Cl)cc1)N1CCN=C1c1cc2ccccc2c2ccccc12`: the TGI was determined as 33.5 µM in the test on OVCAR-8 ovarian; 30.5 µM with SNB-19 CNS; 34.2 µM in the test on MCF7 breast; 28 µM in the test on EKVX NSCLC; 31.5 µM with UO-31 renal; 31.9 µM in the test on MDA-N. Moreover, the TGI in the test with HOP-92 NSCLC was found to be 26.3 µM; in the test on NCI/ADR-RES ovarian it was 33.3 µM; in the test on SK-MEL-28 melanoma it was 29.7 µM; in the test on PC-3 prostate, 37.2 µM; in the test on 786-0 renal it was 30.4 µM.

On to `CCCCCCCCOc1ccc(/C=C/C2=[N+](CCO)CCO2)cc1`, for which the TGI was 12.3 µM in the test with OVCAR-8 ovarian; 17.5 µM with SNB-19 CNS; above 100 µM in the test on MCF7 breast; 14.9 µM in the test with EKVX NSCLC; 25.1 µM with UO-31 renal; 12.3 µM in the test with MDA-N. For the same compound, the TGI stood at 6.51 µM in the test on HOP-92 NSCLC; 29.4 µM in the test with NCI/ADR-RES ovarian; 9.12 µM with SK-MEL-28 melanoma; 10.3 µM in the test with PC-3 prostate; 13.7 µM in the test on 786-0 renal.

Regarding `CCNc1cc2c3c(c1)CCN3CCC2`, the TGI in the test on OVCAR-8 ovarian, with SNB-19 CNS, in the test on MCF7 breast, with EKVX NSCLC, in the test with UO-31 renal and in the test with MDA-N was above 10 µM throughout. In addition, the TGI in the test on HOP-92 NSCLC, in the test with NCI/ADR-RES ovarian, in the test on SK-MEL-28 melanoma, in the test on PC-3 prostate and with 786-0 renal was above 10 µM each time.

Turning to `Cc1ccccc1NC(=O)CC(=O)NNC(Sc1ccccc1)c1cc(N=Nc2ccc(Br)cc2)ccc1O` (centres undefined), the TGI in the test on OVCAR-8 ovarian is 2.12 µM; with SNB-19 CNS it was above 10 µM; with MCF7 breast, above 10 µM; in the test on EKVX NSCLC, above 10 µM; in the test on UO-31 renal it was above 10 µM; in the test on MDA-N it was above 10 µM. In addition, the TGI was above 10 µM in the test on HOP-92 NSCLC; 9.08 µM in the test on NCI/ADR-RES ovarian; above 10 µM in the test on SK-MEL-28 melanoma; above 10 µM with PC-3 prostate; above 10 µM with 786-0 renal.

For `Cc1cc(S(=O)(=O)/N=C(/NN)Nc2ccc(Cl)cc2)c(S)cc1Cl`, the TGI in the test on OVCAR-8 ovarian came out at 27.3 µM; with SNB-19 CNS it was 25.3 µM; in the test with MCF7 breast, 52 µM; in the test with EKVX NSCLC it was 29.3 µM; in the test on UO-31 renal it was 18 µM; in the test on MDA-N, 22.5 µM. Also, the TGI in the test with HOP-92 NSCLC is 67.9 µM; in the test on NCI/ADR-RES ovarian, 23.4 µM; in the test on SK-MEL-28 melanoma it was 60.3 µM; in the test on PC-3 prostate, above 100 µM; in the test with 786-0 renal it was 45.6 µM.

Consider `CC1CCC2(OC1)OC1C(O)C3C4CCC5CC(OC6OC(CO)C(OC7OC(CO)C(O)C(OC8OCC(O)C(O)C8O)C7OC7OC(CO)C(O)C(OC8OC(CO)C(O)C(O)C8O)C7O)C(O)C6O)C(O)CC5(C)C4CCC3(C)C1C2C` (centres undefined), for which the TGI in the test on OVCAR-8 ovarian stood at 4.21 µM; with SNB-19 CNS, 4.34 µM; in the test on MCF7 breast it was 4.78 µM; in the test on EKVX NSCLC, 9.8 µM; in the test with UO-31 renal, 3.66 µM; in the test on MDA-N it was 7.94 µM. The TGI in the test with HOP-92 NSCLC is 26.5 µM; with NCI/ADR-RES ovarian, 13.6 µM; in the test with SK-MEL-28 melanoma, above 100 µM; with PC-3 prostate, 10.3 µM; in the test on 786-0 renal it was 2.96 µM.

For the compound `CCOC1=C(c2ccccc2)N2CCCCC2O1` (centres undefined), the TGI with OVCAR-8 ovarian is above 38.5 µM; in the test on SNB-19 CNS it was above 100 µM; in the test on MCF7 breast, 51.9 µM; with EKVX NSCLC it was above 100 µM; in the test with UO-31 renal, above 79.8 µM; with MDA-N, 21.7 µM. The TGI with HOP-92 NSCLC is 6 µM; in the test on NCI/ADR-RES ovarian, above 96.4 µM; in the test with SK-MEL-28 melanoma, above 63.2 µM; in the test on PC-3 prostate, 22.3 µM; in the test with 786-0 renal it was above 100 µM.

With `C#CCOC(=O)c1ccc(OC(C)=O)cc1`, the TGI with OVCAR-8 ovarian, in the test on SNB-19 CNS, in the test on MCF7 breast, in the test with EKVX NSCLC, in the test on UO-31 renal and in the test on MDA-N was above 100 µM throughout. Further, the TGI in the test on HOP-92 NSCLC, with NCI/ADR-RES ovarian, in the test on PC-3 prostate and in the test with 786-0 renal was above 100 µM throughout.

For `Clc1cc(Cl)ncn1`, the TGI in the test on OVCAR-8 ovarian, with SNB-19 CNS, in the test on MCF7 breast, with UO-31 renal, in the test on MDA-N and in the test on HOP-92 NSCLC was above 100 µM throughout. In addition, the TGI in the test with NCI/ADR-RES ovarian, in the test with SK-MEL-28 melanoma, in the test with PC-3 prostate and in the test with 786-0 renal was above 100 µM each time.

On to `CC(=O)C(C)(C)CCC(C)(C)C(C)=O`, for which the TGI in the test with OVCAR-8 ovarian, with SNB-19 CNS, with MCF7 breast, in the test with EKVX NSCLC, in the test with UO-31 renal and in the test on MDA-N was above 100 µM in each case. Moreover, the TGI in the test with NCI/ADR-RES ovarian, with SK-MEL-28 melanoma, in the test on PC-3 prostate and in the test on 786-0 renal was above 100 µM each time.

In the case of `NC(=O)CN1C=CCC(C(N)=O)=C1`, the TGI in the test with OVCAR-8 ovarian, in the test with SNB-19 CNS, in the test with MCF7 breast, in the test on EKVX NSCLC, in the test on UO-31 renal and in the test on MDA-N was above 100 µM each time. The TGI with HOP-92 NSCLC, with NCI/ADR-RES ovarian, in the test with PC-3 prostate and with 786-0 renal was above 100 µM throughout.

For the compound `O=[N+]([O-])/C(C(Cl)=C(Cl)Cl)=C(/Nc1cccc2cccnc12)n1nnc2ccccc21`, the TGI in the test on OVCAR-8 ovarian is 32 µM; in the test with SNB-19 CNS it was 33.1 µM; with MCF7 breast it was 46.3 µM; in the test on EKVX NSCLC it was above 100 µM; in the test on UO-31 renal, 29.9 µM; in the test with MDA-N, 27.2 µM. The TGI with NCI/ADR-RES ovarian was 53.7 µM; in the test on SK-MEL-28 melanoma, 33.5 µM; with PC-3 prostate it was 51.3 µM; in the test on 786-0 renal, 43.8 µM.

Take `CC(=O)OC[C@H]1On2nnnc2[C@H](OC(C)=O)[C@@H](OC(C)=O)[C@@H]1OC(C)=O`: the TGI in the test with OVCAR-8 ovarian, with MCF7 breast, with EKVX NSCLC, in the test on UO-31 renal, in the test on MDA-N and in the test on HOP-92 NSCLC was above 100 µM each time. Moreover, the TGI in the test on NCI/ADR-RES ovarian, with SK-MEL-28 melanoma, with PC-3 prostate and with 786-0 renal was above 100 µM throughout.

Take `Cc1nc(Nc2ccccc2Cl)sc1C(=O)CC(=O)C(N)=O`: the TGI in the test on OVCAR-8 ovarian, in the test with SNB-19 CNS, in the test with MCF7 breast, in the test on EKVX NSCLC, in the test on UO-31 renal and in the test on MDA-N was above 100 µM each time. In addition, the TGI in the test with HOP-92 NSCLC, in the test on NCI/ADR-RES ovarian, in the test on PC-3 prostate and with 786-0 renal was above 100 µM in each case.

Regarding `CC(C)(C)C1=C(Br)C(O)(C(C)(C)C)OP1(=O)c1ccccc1` (centres undefined), the TGI with OVCAR-8 ovarian was above 100 µM; in the test with SNB-19 CNS, above 100 µM; in the test with MCF7 breast, 43.1 µM; in the test with EKVX NSCLC it was above 100 µM; in the test on MDA-N, above 100 µM; in the test with HOP-92 NSCLC it was above 100 µM. Also, the TGI with NCI/ADR-RES ovarian, with SK-MEL-28 melanoma, in the test with PC-3 prostate and in the test with 786-0 renal was above 100 µM throughout.

Values taken from PubChem BioAssay (NCI).
